# Experiments:
# [1] = system: amphetamine induced hyperactive mouse model; assay: amphetamine induced hyperactivity mouse model; assay type: in vivo, Swiss mice; settings: for in-vivo antipsychotic activity, in words: mouse
# Description: (§1) The above fractions were evaluated for their antipsychotic activity. In order to assess the antipsychotic potential of MeOH extract, its various fractions, alkaloids isolated and their derivatives from Rauwolfia tetraphylla leaf, amphetamine induced hyper activity mouse model was used following the method of Szewczak et al (1987). Adult Swiss mice of either sex (25±2 g body weight) obtained from the Indian Institute of Toxicology Research (IITR), Lucknow, India animal-breeding colony were used throughout the experiment. The animals were housed in plastic polypropylene cages under standard animal house conditions with a 12 hours light/dark cycle and temperature of 25±2° C. The animals had adlibitum access to drinking water and pellet diet (Hindustan Lever Laboratory Animal Feed, Kolkata, India). The Animal Care and Ethics Committee of IITR approved all experimental protocols applied to animals.
# Mice were injected with amphetamine (5 mg/kg, i.p.) 60 minutes after oral treatment with respective extract in each group.
# as §1, with “In” for “The above fractions were evaluated for their antipsychotic activity. In”
# The mice randomly grouped in batches of seven animals per group. The basal motor activity (distance traveled) of each mouse was recorded individually using automated activity monitor (TSE, Germany). After basal activity recording, a group of seven animals were challenged with amphetamine [[…], intra peritoneal (i.p) dissolved in normal saline]. After 30 min. amphetamine injection, motor activity was recorded for individual animal for 5 min.
# The difference in motor activity as indicated by distance traveled in animals with amphetamine alone treated and animals with samples plus amphetamine challenge was recorded as inhibition in hyperactivity caused by amphetamine and the data presented as percent inhibition in amphetamine induced hyperactivity.
# alpha-2 adrenoceptors = settings: in vivo; cited from earlier work
# alpha-2 adrenoceptor = settings: rats and mice; cited from earlier work
smiles,measurement,setting,value
CC(N)Cc1ccccc1 (stereo not shown) [Amphetamine],Distance traveled,"[1]; amphetamine alone, 5 mg/Kg i.p.",6064 cm
"COC(=O)[C@H]1[C@H]2C[C@H]3c4[nH]c5ccccc5c4CCN3C[C@H]2CC[C@@H]1O [Compound K001, 17α-hydroxy-20α-yohimban-16β-carboxylic acid methyl ester]",inhibition in amphetamine induced hyperactivity mice model,[1]; 6.25 mg/Kg,> 60%
same,"in-vivo antipsychotic activity, in words",[1],significant in-vivo antipsychotic activity at lower doses
same,"in-vivo antipsychotic activity, in words",[1]; listed as α-yohimbine (K001),more active even at lower doses
same,alpha-2 adrenoceptor selectivity relative to RS 21361,alpha-2 adrenoceptors,~2 times
same,alpha-2 adrenoceptor selectivity relative to RX 781094,alpha-2 adrenoceptors,about 25 times
c1ccc2c(c1)OCC(C1=NCCN1)O2 (stereo not shown) [RX 781094],effectiveness relative to α-yohimbine in antagonizing clonidine hypotension and sedation,alpha-2 adrenoceptor,approximately 3 times
COC(=O)[C@H]1[C@H]2C[C@@H]3c4[nH]c5cc(OC)ccc5c4CCN3C[C@H]2C[C@@H](OC(=O)c2cc(OC)c(OC)c(OC)c2)[C@@H]1OC [Reserpine],Anti-psychotic activity (% inhibition in amphetamine induced hyperactivity),[1]; dose 5 mg/Kg,34%
same,Distance traveled,"[1]; dose 5 mg/Kg, amphetamine 5 mg/kg i.p. 60 minutes later",4002 cm
same,Distance traveled,"[1]; dose […], amphetamine 5 mg/kg i.p. 60 minutes later",5093 cm

# From patent US9018226B2, “Antipsychotic agents and standardized antipsychotic fractions from Rauwolfia tetraphylla and process of their isolation” (Council of Scientific & Industrial Research, priority 2009, dated 2015)
